This is an account of results in US9029376B2, “Small molecule inhibitors for the treatment or prevention of dengue virus infection” (Siga Technologies, Inc., priority 2008, dated 2015).

The subject of one assay is Dengue-2 (Strain New Guinea C). Nature of the assay: Dengue-2 viral yield assay in Vero cells. The format is cell-based. The conditions noted are these: Dengue virus, Vero, 48 h, read-out: Activity (anti-dengue 2 viral activity, EC50). The method, then:
Compounds that were active in the primary screen were tested for activity in viral yield assays. […] Vero cells in 12-well plates were infected with dengue-2 virus at a multiplicity of infection (MOI) of 0.1, treated with compound (or DMSO as a control), incubated at 37° C., harvested 48 hours post infection and titered on Vero cells as described above. The EC50 was calculated through ExcelFit. Those compounds with activity below 1 μM are indicated with “A”, those with activity between 1 and 10 μM are indicated with “B”, and those with activity between 10 and 25 μM with “C”.
With `O=C(Nc1ccc2nc(SCC(=O)N3CCOCC3)sc2c1)c1ccc(Cl)cc1Cl` [Compound 6, 2,4-Dichloro-N-[2-(2-morpholin-4-yl-2-oxo-ethylsulfanyl)-benzothiazol-6-yl]-benzamide], the EC50 was 1 to 10 µM. Turning to `CCOc1ccc2nc(SCC(=O)N3CCc4ccccc4C3)sc2c1` [Compound 7, 1-(3,4-Dihydro-1H-isoquinolin-2-yl)-2-(6-ethoxy-benzothiazol-2-ylsulfanyl)-ethanone], the EC50 lay within 1 to 10 µM. Consider `O=C(CSc1nc2ccccc2[nH]1)N1CCN(c2ccc(F)cc2)CC1` [Compound 8, 2-(1H-Benzoimidazol-2-ylsulfanyl)-1-[4-(4-fluoro-phenyl)-piperazin-1-yl]-ethanone], for which the EC50 fell in the range of 1 to 10 µM. For the compound `NC(=O)C1(N2CCCCC2)CCN(C(=O)CSc2nc3ccccc3s2)CC1` [Compound 9, 1′-[2-(Benzothiazol-2-ylsulfanyl)-acetyl]-[1,4′]bipiperidinyl-4′-carboxylic acid amide], the concentration for a half-maximal effect (EC50) was 1 to 10 µM.

Consider `Cc1cccc(C(=O)Nc2ccc3nc(SCC(=O)N4CCOCC4)sc3c2)c1` [Compound 13, 3-Methyl-N-[2-(2-morpholin-4-yl-2-oxo-ethylsulfanyl)-benzothiazol-6-yl]-benzamide], for which the EC50 is 10 to 25 µM. Turning to `Nc1ccc2nc(SCC(=O)N3CCOCC3)sc2c1` [Compound 16, 2-(6-Amino-benzothiazol-2-ylsulfanyl)-1-morpholin-4-yl-ethanone], the EC50 was more than 25 µM. On to `O=C(Nc1ccc2nc(SCC(=O)N3CCOCC3)sc2c1)c1ccccc1Br` [Compound 20, 2-Bromo-N-[2-(2-morpholin-4-yl-2-oxo-ethylsulfanyl)-benzothiazol-6-yl]-benzamide], for which the EC50 was more than 25 µM. Regarding `O=C(Nc1ccc2nc(SCC(=O)N3CCOCC3)sc2c1)c1ccccc1` [Compound 21, N-[2-(2-Morpholin-4-yl-2-oxo-ethylsulfanyl)-benzothiazol-6-yl]-benzamide], the EC50 is more than 25 µM.

For `COc1ccccc1C(=O)Nc1ccc2nc(SCC(=O)N3CCOCC3)sc2c1` [Compound 28, 2-Methoxy-N-[2-(2-morpholin-4-yl-2-oxo-ethylsulfanyl)-benzothiazol-6-yl]-benzamide], the concentration giving a half-maximal response (EC50) was more than 25 µM.

Staying with this assay, now noted: Dengue virus; Dengue-2 strain New Guinea C, Vero cells, MOI 0.1, harvested 48 hours post infection, viral yield; read-out: Activity (anti-dengue 2 viral activity, EC50).
Take `O=C(CCc1ccccc1)Nc1ccc2nc(SCC(=O)N3CCOCC3)sc2c1` [Compound 1, N-[2-(2-Morpholin-4-yl-2-oxo-ethylsulfanyl)-benzothiazol-6-yl]-3-phenyl-propionamide]: the EC50 was less than 1 µM. With `CCC(=O)Nc1ccc2nc(SCC(=O)N3CCCCC3)sc2c1` [Compound 2, N-[2-(2-oxo-2-piperidin-1-yl-ethylsulfanyl)-benzothiazol-6-yl]-propionamide], the EC50 is less than 1 µM. Regarding `Cc1ccccc1C(=O)Nc1ccc2nc(SCC(=O)N3CCOCC3)sc2c1` [Compound 5, 2-Methyl-N-[2-(2-morpholin-4-yl-2-oxo-ethylsulfanyl)-benzothiazol-6-yl]-benzamide], the EC50 was 1 to 10 µM. `Nc1ccc2nc(SCC(=O)N3CCN(Cc4ccccc4)CC3)sc2c1` [Compound 10, 2-(6-Amino-benzothiazol-2-ylsulfanyl)-1-(4-benzyl-piperazin-1-yl)-ethanone]: the half-maximal effective concentration (EC50) was 1 to 10 µM.

As for `O=C(CSc1nc2ccccc2o1)N1CCN(Cc2ccccc2)CC1` [Compound 11, 2-(Benzooxazol-2-ylsulfanyl)-1-(4-benzyl-piperazin-1-yl)-ethanone], the 50% effective concentration (EC50) lay in the range of 1 to 10 µM. Still for that read-out and setting: the figure for `CCOc1ccc2nc(SCC(=O)N3CCN(c4ccccc4)CC3)sc2c1` [Compound 14, 2-(6-Ethoxy-benzothiazol-2-ylsulfanyl)-1-(4-phenyl-piperazin-1-yl)-ethanone] is 10 to 25 µM.

For the compound `CCN(CC)C(=O)CSc1nc2ccccc2n1C(=O)NC1CCCCC1` [Compound 15, 2-Diethylcarbamoylmethylsulfanyl-benzoimidazole-1-carboxylic acid cyclohexylamide], the EC50 was more than 25 µM. With `O=C(CSc1nc2ccc(/N=C/c3ccc(Br)cc3)cc2s1)N1CCOCC1` [Compound 17, 2-(6-{[1-(4-Bromo-phenyl)-meth-(E)-ylidene]-amino}-benzothiazol-2-ylsulfanyl)-1-morpholin-4-yl-ethanone], the EC50 is more than 25 µM.

On to `O=C(CSc1nc2ccc(/N=C/c3ccc(Cl)cc3)cc2s1)N1CCOCC1` [Compound 18, 2-(6-{[1-(4-Chloro-phenyl)-meth-(E)-ylidene]-amino}-benzothiazol-2-ylsulfanyl)-1-morpholin-4-yl-ethanone], for which the EC50 is more than 25 µM. As to `O=C(CSc1nc2ccc(/N=C/c3c4ccccc4cc4ccccc34)cc2s1)N1CCOCC1` [Compound 19, 2-(6-{[1-Anthracen-9-yl-meth-(E)-ylidene]-amino}-benzothiazol-2-ylsulfanyl)-1-morpholin-4-yl-ethanone], the EC50 is more than 25 µM.

In the case of `CCCCOc1ccc(C(=O)Nc2ccc3nc(SCC(=O)N4CCOCC4)sc3c2)cc1` [Compound 22, 4-Butoxy-N-[2-(2-morpholin-4-yl-2-oxo-ethylsulfanyl)-benzothiazol-6-yl]-benzamide], the EC50 is more than 25 µM. For `O=C(CSc1nc2ccc(/N=C/c3ccc(Sc4nnnn4-c4ccccc4)o3)cc2s1)N1CCOCC1` [Compound 23, 1-Morpholin-4-yl-2-(6-{[1-[5-(1-phenyl-1H-tetrazol-5-ylsulfanyl)-furan-2-yl]-meth-(E)-ylidene]-amino}-benzothiazol-2-ylsulfanyl)-ethanone], the EC50 is more than 25 µM. On to `O=C(CSc1nc2ccc(/N=C/c3c(Cl)cccc3Cl)cc2s1)N1CCOCC1` [Compound 24, 2-(6-{[1-(2,6-Dichloro-phenyl)-meth-(E)-ylidene]-amino}-benzothiazol-2-ylsulfanyl)-1-morpholin-4-yl-ethanone], for which the EC50 was more than 25 µM. Turning to `O=C(CSc1nc2ccc(/N=C/c3ccc(I)cc3)cc2s1)N1CCOCC1` [Compound 25, 2-(6-{[1-(4-Iodo-phenyl)-meth-(E)-ylidene]-amino}-benzothiazol-2-ylsulfanyl)-1-morpholin-4-yl-ethanone], the EC50 is more than 25 µM.

As to `O=C(CSc1nc2ccc(/N=C/c3ccc(F)cc3)cc2s1)N1CCOCC1` [Compound 26, 2-(6-{[1-(4-Fluoro-phenyl)-meth-(E)-ylidene]-amino}-benzothiazol-2-ylsulfanyl)-1-morpholin-4-yl-ethanone], the EC50 was more than 25 µM.

For the compound `O=C(Nc1ccc2nc(SCC(=O)N3CCOCC3)sc2c1)c1ccccc1F` [Compound 27, 2-Fluoro-N-[2-(2-morpholin-4-yl-2-oxo-ethylsulfanyl)-benzothiazol-6-yl]-benzamide], the half-maximal effective concentration (EC50) is more than 25 µM. Consider `O=C(Nc1ccc2nc(SCC(=O)N3CCOCC3)sc2c1)c1ccc(Cl)c(Cl)c1` [Compound 29, 3,4-Dichloro-N-[2-(2-morpholin-4-yl-2-oxo-ethylsulfanyl)-benzothiazol-6-yl]-benzamide], for which the EC50 was more than 25 µM. As for `CCN(CC)C(=O)CSc1nc2ccc(N3C(=O)c4ccccc4C3=O)cc2s1` [Compound 30, 2-[6-(1,3-Dioxo-1,3-dihydro-isoindol-2-yl)-benzothiazol-2-ylsulfanyl]-N,N-diethyl-acetamide], the EC50 was more than 25 µM. On the same count and under the same terms, the figure for `Nc1ccc2nc(SCC(=O)Nc3ccc4nc(SCC(=O)N5CCOCC5)sc4c3)sc2c1` [Compound 31, 2-(6-Amino-benzothiazol-2-ylsulfanyl)-N-[2-(2-morpholin-4-yl-2-oxo-ethylsulfanyl)-benzothiazol-6-yl]-acetamide] is more than 25 µM.
